Measurements as given in patent US5362634A, “Process for producing A83543 compounds” (DowElanco, priority 1991, dated 1994).
Where two headings read alike, the source gives them in different places.

Key:
[1] = system: SAW (Southern armyworm) larvae; assay: Topical test against SAW larvae; type: in vivo; conditions: Spodoptera eridania
Procedure: (§1) Each test compound was formulated by dissolving the compound in an acetone/alcohol (1:1) mixture containing 23 g of "Toximul R" (sulfonate/nonionic emulsifier blend) and 13 g of "Toximul S" (sulfonate/nonionic emulsifier blend) per liter. These mixtures were then diluted with water to give the indicated concentrations.
Additional insects were evaluated using similar formulations and evaluation procedures, with the exceptions noted.
After standard exposure periods, percent mortality was evaluated. The following abbreviations are used:
^a Days between treatment and observation
^b Mean of replicates tested
^f Treated topically with 1 mL of formulated A83543A

SAW (Southern armyworm) [2] = assay: Greenhouse test against SAW; type: in vivo; conditions: Spodoptera eridania, squash
Procedure: as §1
Two-spotted spider mites (Tetranychus urticae Koch) and cotton or melon aphids (Aphis gossypii Glover) were introduced on squash cotyledons and allowed to establish on both leaf surfaces. Other plants in the same treatment pot were left uninfested. The leaves were then sprayed with 5 mL of test solution using a DeVilbiss atomizing sprayer at 10 psi. Both surfaces of the leaves were covered until runoff and then allowed to dry for one hour. Two uninfested leaves were then excised and placed into a Petri dish containing Southern armyworm (Spodoptera eridania Cramer).
After standard exposure periods, percent mortality was evaluated.

Spodoptera eridania = assay: Outdoor pot tests against Southern armyworm; type: in vivo
From the text: Table XV compares the effectiveness and persistence of A83543A treatment with that of methomyl in outdoor pot tests against Southern armyworm.

imported cabbage worm = assay: Field trial, imported cabbage worm on sprouting broccoli; type: in vivo
Procedure: A83543A was evaluated in field trials.

adult stable fly (ASF) = assay: In vitro efficacy, exposure of ASF to chemically added serum samples; conditions: Stomoxys calcitrans, read-out: Percent insect mortality
From the text: ^1 Percent insect mortality following 24 to 48 hrs. in vitro exposure
to chemically added serum samples

SAW (Southern armyworm) [3] = assay: Greenhouse test against SAW; type: in vivo; conditions: Spodoptera eridania, bushbean

Question: How did the inhibition at 1 ppm ([1]; 24 h, second instar, 1 day) turn out when `CC[C@H]1CCC[C@H](O[C@H]2CC[C@H](N(C)C)[C@@H](C)O2)[C@@H](C)C(=O)C2=C[C@@H]3[C@@H](C=C[C@@H]4C[C@@H](O[C@@H]5O[C@@H](C)[C@H](OC)[C@@H](OC)[C@H]5OC)C[C@@H]34)[C@@H]2CC(=O)O1` [A83543A] was run?
Answer: 0%

Question: What about the inhibition at 5 ppm ([1]; 24 h, second instar, 1 day) of the same molecule?
Answer: 0%

Question: What about the inhibition at 10 ppm ([1]; 24 h, second instar, 1 day) of the same molecule?
Answer: 0%

Question: And the inhibition at 50 ppm ([1]; 24 h, second instar, 1 day)?
Answer: 80%

Question: And the inhibition at 100 ppm ([1]; 24 h, second instar, 1 day)?
Answer: 100%

Question: And the inhibition at 10 ppm ([1]; 48 h, fifth instar, 2 days)?
Answer: 0%

Question: And the inhibition at 50 ppm ([1]; 48 h, fifth instar, 2 days)?
Answer: 0%

Question: And the inhibition at 1 ppm ([1]; 48 h, third instar, 2 days)?
Answer: 0%

Question: What about the inhibition at 5 ppm ([1]; 48 h, third instar, 2 days) of the same molecule?
Answer: 0%

Question: What about the inhibition at 10 ppm ([1]; 48 h, third instar, 2 days) of the same molecule?
Answer: 13.3%

Question: What about the inhibition at 50 ppm ([1]; 48 h, third instar, 2 days) of the same molecule?
Answer: 73.3%

Question: What about the inhibition at 1 ppm ([1]; 72 h, neonate, 3 days) of the same molecule?
Answer: 0%

Question: And the inhibition at 5 ppm ([1]; 72 h, neonate, 3 days)?
Answer: 60%

Question: And the inhibition at 10 ppm ([1]; 72 h, neonate, 3 days)?
Answer: 100%

Question: And the inhibition at 50 ppm ([1]; 72 h, neonate, 3 days)?
Answer: 100%

Question: And the inhibition at 100 ppm ([1]; 72 h, neonate, 3 days)?
Answer: 100%

Question: What about the inhibition at 1.9 ppm (SAW (Southern armyworm) [2]; 1.9 ppm) of the same molecule?
Answer: 0%

Question: What about the inhibition at 3.9 ppm (SAW (Southern armyworm) [2]; 3.9 ppm) of the same molecule?
Answer: 20%

Question: And the inhibition at 7.8 ppm (SAW (Southern armyworm) [2]; 7.8 ppm)?
Answer: 20%

Question: What about the inhibition at 15.63 ppm (SAW (Southern armyworm) [2]; 15.63 ppm) of the same molecule?
Answer: 40%

Question: And the inhibition at 31.25 ppm (SAW (Southern armyworm) [2]; 31.25 ppm)?
Answer: 55%

Question: And the inhibition at 62.5 ppm (SAW (Southern armyworm) [2]; 62.5 ppm)?
Answer: 100%

Question: And the inhibition at 125 ppm (SAW (Southern armyworm) [2]; 125 ppm)?
Answer: 100%

Question: And the inhibition at 250 ppm (SAW (Southern armyworm) [2]; 250 ppm)?
Answer: 100%

Question: What about the mortality at 63 ppm (Spodoptera eridania; 24 h, 1 day after treatment) of the same molecule?
Answer: 100%

Question: And the mortality at 125 ppm (Spodoptera eridania; 24 h, 1 day after treatment)?
Answer: 100%

Question: And the mortality at 250 ppm (Spodoptera eridania; 24 h, 1 day after treatment)?
Answer: 100%

Question: And the mortality at 500 ppm (Spodoptera eridania; 24 h, 1 day after treatment)?
Answer: 100%

Question: What about the mortality at 63 ppm (Spodoptera eridania; 120 h, 5 days after treatment) of the same molecule?
Answer: 88%

Question: And the mortality at 125 ppm (Spodoptera eridania; 120 h, 5 days after treatment)?
Answer: 88%

Question: And the mortality at 250 ppm (Spodoptera eridania; 120 h, 5 days after treatment)?
Answer: 95%

Question: And the mortality at 500 ppm (Spodoptera eridania; 120 h, 5 days after treatment)?
Answer: 100%

Question: And the mortality at 63 ppm (Spodoptera eridania; 168 h, 7 days after treatment)?
Answer: 90%

Question: What about the mortality at 125 ppm (Spodoptera eridania; 168 h, 7 days after treatment) of the same molecule?
Answer: 95%

Question: And the mortality at 250 ppm (Spodoptera eridania; 168 h, 7 days after treatment)?
Answer: 100%

Question: What about the mortality at 500 ppm (Spodoptera eridania; 168 h, 7 days after treatment) of the same molecule?
Answer: 100%

Question: And the mortality at 63 ppm (Spodoptera eridania; 336 h, 14 days after treatment)?
Answer: 5%

Question: What about the mortality at 125 ppm (Spodoptera eridania; 336 h, 14 days after treatment) of the same molecule?
Answer: 90%

Question: And the mortality at 250 ppm (Spodoptera eridania; 336 h, 14 days after treatment)?
Answer: 100%

Question: What about the mortality at 500 ppm (Spodoptera eridania; 336 h, 14 days after treatment) of the same molecule?
Answer: 100%

Question: What about the “activity in field trials” value (imported cabbage worm) of the same molecule?
Answer: showed activity

Question: And the mortality at 0.312 ppm (adult stable fly (ASF); 24 hr)?
Answer: 0%

Question: And the mortality at 0.312 ppm (adult stable fly (ASF); 48 hr)?
Answer: 50%

Question: What about the mortality at 0.625 ppm (adult stable fly (ASF); 24 hr) of the same molecule?
Answer: 0%

Question: And the mortality at 0.625 ppm (adult stable fly (ASF); 48 hr)?
Answer: 70%

Question: What about the mortality at 1.25 ppm (adult stable fly (ASF); 24 hr) of the same molecule?
Answer: 20%

Question: What about the mortality at 1.25 ppm (adult stable fly (ASF); 48 hr) of the same molecule?
Answer: 100%

Question: What about the mortality at 2.5 ppm (adult stable fly (ASF); 24 hr) of the same molecule?
Answer: 30%

Question: And the mortality at 2.5 ppm (adult stable fly (ASF); 48 hr)?
Answer: 100%

Question: And the mortality at 5 ppm (adult stable fly (ASF); 24 hr)?
Answer: 50%

Question: And the mortality at 5 ppm (adult stable fly (ASF); 48 hr)?
Answer: 100%

Question: What about the mortality at 10 ppm (adult stable fly (ASF); 24 hr) of the same molecule?
Answer: 80%

Question: What about the mortality at 10 ppm (adult stable fly (ASF); 48 hr) of the same molecule?
Answer: 100%

Question: And the inhibition at 12.5 ppm (SAW (Southern armyworm) [3]; 12.5 ppm)?
Answer: 0%

Question: What about the inhibition at 25 ppm (SAW (Southern armyworm) [3]; 25 ppm) of the same molecule?
Answer: 40%

Question: And the inhibition at 50 ppm (SAW (Southern armyworm) [3]; 50 ppm)?
Answer: 80%

Question: And the inhibition at 100 ppm (SAW (Southern armyworm) [3]; 100 ppm)?
Answer: 100%
